In ChEMBL document CHEMBL6134868, “Novel Aryl Sulfonium Modification on Vancomycin to Tackle MRSA and VRE In Vitro and In Vivo through Dual Enhanced Cell-Wall and Membrane Inhibition” (J Med Chem, 2025):
Active and inactive are the calls of the source. The rule behind the calls is not given here.

How the values were obtained:
[1] = Volume of distribution at steady state in CD-1 mouse at 5 mg/kg, iv measured for 0.05 to 24 hrs by UPLC analysis; assay type: ADME, organism-based; conditions: in vivo, time 0.05-24 hrs, read-out: Vdss
[2] = tested on: Pseudomonas aeruginosa; test: Antibacterial activity against Pseudomonas aeruginosa PAO1 incubated for 16 to 24 hrs by broth microdilution assay; assay type: functional; conditions: time 16-24 hrs
[3] = Cytotoxicity against mouse AML12 cells assessed as cell viability at 50 mg/L incubated for 72 hrs by CCK8 assay relative to control; assay type: toxicity, cell-based; conditions: at 50 µg/mL, read-out: Activity
[4] = AUClast in CD-1 mouse at 5 mg/kg, iv measured for 0.05 to 24 hrs by UPLC analysis; assay type: ADME, organism-based; conditions: in vivo, time 0.05-24 hrs
[5] = tested on: Acinetobacter baumannii; test: Antibacterial activity against carbapenem-resistant Acinetobacter baumannii CRAB-1 clinical isolate incubated for 16 to 24 hrs by broth microdilution assay; assay type: functional; conditions: time 16-24 hrs
[6] = Half life in CD-1 mouse at 5 mg/kg, iv measured for 0.05 to 24 hrs by UPLC analysis; assay type: ADME, organism-based; conditions: in vivo, time 0.05-24 hrs
[7] = tested on: Acinetobacter baumannii; test: Induction of outer membrane permeability in carbapenem-resistant Acinetobacter baumannii CRAB-1 clinical isolate by NPN dye based analysis; assay type: functional, organism-based; conditions: dose 1.33-170 µg/ml
[8] = tested on: Staphylococcus aureus; test: Antibacterial activity against methicillin-resistant Staphylococcus aureus USA300 LAC infected in female BALB/c mouse assessed as animal survival rate at 7 mg/kg, iv measured for 7 days consecutively relative to control; assay type: functional; conditions: 168 h, time 7 day
[9] = tested on: Enterococcus faecium; test: Antibacterial activity against vancomycin-resistant Enterococcus faecium Efm-HS-08257 harboring VanM phenotype incubated for 16 to 24 hrs by broth microdilution assay; assay type: functional; conditions: time 16-24 hrs
[10] = tested on: Enterococcus faecium; test: Antibacterial activity against vancomycin-resistant Enterococcus faecium Efm-HS-0649 harboring VanA phenotype incubated for 16 to 24 hrs by broth microdilution assay; assay type: functional; conditions: time 16-24 hrs
[11] = tested on: Staphylococcus aureus; test: Antibacterial activity against vancomycin-intermediate Staphylococcus aureus Mu50 incubated for 16 to 24 hrs by broth microdilution assay; assay type: functional; conditions: time 16-24 hrs
[12] = AUC (infinity) in CD-1 mouse at 5 mg/kg, iv measured for 0.05 to 24 hrs by UPLC analysis; assay type: ADME, organism-based; conditions: in vivo, time 0.05-24 hrs
[13] = tested on: Escherichia coli; test: Antibacterial activity against Escherichia coli AB1157 incubated for 16 to 24 hrs by broth microdilution assay; assay type: functional; conditions: time 16-24 hrs
[14] = tested on: Enterococcus faecium; test: Antibacterial activity against vancomycin-resistant Enterococcus faecium Efm-HS-vb01 harboring VanB phenotype incubated for 16 to 24 hrs by broth microdilution assay; assay type: functional; conditions: time 16-24 hrs
[15] = tested on: Enterococcus faecium; test: Antibacterial activity against vancomycin-resistant Enterococcus faecium Efm-HS-vb02 harboring VanB phenotype incubated for 16 to 24 hrs by broth microdilution assay; assay type: functional; conditions: time 16-24 hrs
[16] = tested on: Acinetobacter baumannii; test: Antibacterial activity against Acinetobacter baumannii ATCC19606 incubated for 16 to 24 hrs by broth microdilution assay; assay type: functional; conditions: time 16-24 hrs
[17] = tested on: Bacteria; test: Antibacterial activity against Gram-positive bacteria incubated for 16 to 24 hrs by broth microdilution assay; assay type: functional; conditions: time 16-24 hrs
[18] = Drug concentration in CD-1 mouse at 5 mg/kg, iv measured after 8 hrs; assay type: ADME, organism-based; conditions: in vivo, read-out: Drug uptake
[19] = Hemolytic activity against rat erythrocytes at 100 ug/ml incubated for 1 hr by absorbance based assay; assay type: toxicity, cell-based, Erythrocyte; conditions: erythrocyte, 1 h, dose 100 µg/ml
[20] = MRT (infinity) in CD-1 mouse at 5 mg/kg, iv measured for 0.05 to 24 hrs by UPLC analysis; assay type: ADME, organism-based; conditions: in vivo, time 0.05-24 hrs
[21] = tested on: Staphylococcus aureus; test: Inhibition of peptidoglycan biosynthesis in methicillin-resistant Staphylococcus aureus USA300 LAC assessed as fold increase in accumulation of Park's nucleotide at 5 ug/ml incubated for 2 hrs by RP-HPLC analysis; assay type: functional; conditions: dose 5 µg/ml
[22] = tested on: Klebsiella pneumoniae; test: Antibacterial activity against Klebsiella pneumoniae KP-1 incubated for 16 to 24 hrs by broth microdilution assay; assay type: functional; conditions: time 16-24 hrs
[23] = Acute toxicity in mouse assessed as animal suvival at 40 mg/kg, iv measured for 7 days; assay type: organism-based; conditions: in vivo, 168 h, time 7 day
[24] = tested on: Staphylococcus aureus; test: Dissipation of membrane potential in methicillin-resistant Staphylococcus aureus USA300 LAC at 1.3 to 170 ug/ml by DiSC3(5) dye based analysis; assay type: functional, organism-based; conditions: dose 1.3-170 µg/ml
[25] = tested on: Enterococcus faecium; test: Antibacterial activity against vancomycin-resistant Enterococcus faecium SC-2022-D2-059 harboring VanA phenotype incubated for 16 to 24 hrs by broth microdilution assay; assay type: functional; conditions: time 16-24 hrs
[26] = tested on: Staphylococcus aureus; test: Antibacterial activity against methicillin-resistant Staphylococcus aureus USA300 LAC incubated for 16 to 24 hrs by broth microdilution assay; assay type: functional; conditions: time 16-24 hrs
[27] = Cytotoxicity against HK-2 cells assessed as cell viability at 50 mg/L incubated for 72 hrs by CCK8 assay relative to control; assay type: toxicity, cell-based; conditions: human, at 50 µg/mL, read-out: Activity
[28] = tested on: Enterococcus faecium; test: Antibacterial activity against vancomycin-resistant Enterococcus faecium SC-2022-D2-059 harboring VanA phenotype infected in ICR mouse assessed as animal survival rate at 10 to 20 mg/kg, iv measured for 7 days relative to control; assay type: functional; conditions: dose 10-20 mg/kg, time 7 day
[29] = tested on: Enterococcus faecium; test: Antibacterial activity against vancomycin-resistant Enterococcus faecium SC-2022-D2-059 harboring VanA phenotype infected in ICR mouse assessed as animal survival rate at 5 mg/kg, iv measured for 7 days relative to control; assay type: functional; conditions: SC-2022-D2-059, 168 h, time 7 day
[30] = tested on: Staphylococcus aureus; test: Induction of membrane permeability in methicillin-resistant Staphylococcus aureus USA300 LAC by fluorescence based analysis; assay type: functional, organism-based; conditions: dose 2.67-170 µg/ml
[31] = Clearance in CD-1 mouse at 5 mg/kg, iv measured for 0.05 to 24 hrs by UPLC analysis; assay type: ADME, organism-based; conditions: in vivo, time 0.05-24 hrs
[32] = Protein binding in plasma (unknown origin); assay type: ADME, cell-free; conditions: read-out: PPB (converted)

Structure (SMILES)	MIC [2] [µg/mL]	MIC [5] [µg/mL]	MIC [9] [µg/mL]	MIC [10] [µg/mL]	MIC [11] [µg/mL]	MIC [13] [µg/mL]	MIC [14] [µg/mL]	MIC [15] [µg/mL]	MIC [16] [µg/mL]	MIC [22] [µg/mL]	MIC [26] [µg/mL]	fraction unbound [32]	further results
CN[C@H](CC(C)C)C(=O)N[C@H]1C(=O)N[C@@H](CC(N)=O)C(=O)N[C@H]2C(=O)N[C@H]3C(=O)N[C@H](C(=O)N[C@H](C(=O)O)c4cc(O)c(CNCCC[S+](C)CC(O)COc5ccc(-c6ccc(C(F)(F)F)cc6)cc5)c(O)c4-c4cc3ccc4O)[C@H](O)c3ccc(c(Cl)c3)Oc3cc2cc(c3O[C@@H]2O[C@H](CO)[C@@H](O)[C@H](O)[C@H]2O[C@H]2C[C@](C)(N)[C@H](O)[C@H](C)O2)Oc2ccc(cc2Cl)[C@H]1O.O=C([O-])C(F)(F)F (some centres undefined)	> 128	32	2	0.5	0.125	8	≤ 0.063	≤ 0.063	16	128	0.031		Vd [1]: 0.566 L/kg; viability at 72 h, 50 mg/L [3]: ~100%; AUC(0-t) [4]: 41600 ng·h/mL; half-life [6]: 214 min; Activity [7]: Active; survival at 7 mg/kg [8]: 100%; AUC(0-inf) [12]: 42000 ng·h/mL; MIC [17]: ≤ 0.063 µg/mL; concentration at 8 h [18]: ~700 ng/mL; Activity [19]: Toxic; MRT inf [20]: 3.98 h; fold change (FC) [21]: <=3; Activity [23]: Non-toxic; Activity [24]: Active; MIC [25]: 0.12 µg/mL; viability at 72 h, 50 mg/L [27]: ~100%; Survival [28]: 100%; survival at 5 mg/kg [29]: 50%; Activity [30]: Dose-dependent-effect; clearance [31]: 2.28 mL/min/kg
CCCCCCCCCCNCCN[C@@]1(C)C[C@H](O[C@H]2[C@H](Oc3c4cc5cc3Oc3ccc(cc3Cl)[C@@H](O)[C@@H](NC(=O)[C@@H](CC(C)C)NC)C(=O)N[C@@H](CC(N)=O)C(=O)N[C@H]5C(=O)N[C@H]3C(=O)N[C@H](C(=O)N[C@H](C(=O)O)c5cc(O)c(CNCP(=O)(O)O)c(O)c5-c5cc3ccc5O)[C@H](O)c3ccc(c(Cl)c3)O4)O[C@H](CO)[C@@H](O)[C@@H]2O)O[C@@H](C)[C@H]1O [TELAVANCIN]												0.1	
CN[C@H](CC(C)C)C(=O)N[C@H]1C(=O)N[C@@H](CC(N)=O)C(=O)N[C@H]2C(=O)N[C@H]3C(=O)N[C@H](C(=O)N[C@H](C(=O)O)c4cc(O)cc(O)c4-c4cc3ccc4O)[C@H](O[C@H]3C[C@](C)(N)[C@@H](O)[C@H](C)O3)c3ccc(c(Cl)c3)Oc3cc2cc(c3O[C@@H]2O[C@H](CO)[C@@H](O)[C@H](O)[C@H]2O[C@H]2C[C@](C)(NCc3ccc(-c4ccc(Cl)cc4)cc3)[C@@H](O)[C@H](C)O2)Oc2ccc(cc2Cl)[C@H]1O [ORITAVANCIN]												0.14	
CC(C)C[C@H](C(=O)N[C@H]1C(=O)N[C@@H](CC(N)=O)C(=O)N[C@H]2C(=O)N[C@H]3C(=O)N[C@H](C(=O)N[C@H](C(=O)O)c4cc(O)cc(O)c4-c4cc3ccc4O)[C@H](O)c3ccc(c(Cl)c3)Oc3cc2cc(c3O[C@@H]2O[C@H](CO)[C@@H](O)[C@H](O)[C@H]2O[C@H]2C[C@](C)(N)[C@H](O)[C@H](C)O2)Oc2ccc(cc2Cl)[C@H]1O)N(C)CCC[S+](C)CC(O)COc1ccccc1.O=C([O-])C(F)(F)F (some centres undefined)	> 128	> 128	128	> 128	8	> 128	64	32	> 128	> 128	2		
